Measured values published in patent publication US8211929B2, “Pyrimidine derivatives as kinase modulators and method of use” (Exelixis, Inc., priority 2004, dated 2012).
Read-outs that look alike come from different tables or passages of the source.

Experiments:
[1] = target: T1, (Homo sapiens, UniProt P08069); test: IGF1R kinase assay (LCCA), IGF 0P; assay type: biochemical
T1 construct: human IGF1R kinase domain residues M954-C1367; made in house; host or cells: baculovirus expression (insect cells)
T1 sequence (P08069 954-1367): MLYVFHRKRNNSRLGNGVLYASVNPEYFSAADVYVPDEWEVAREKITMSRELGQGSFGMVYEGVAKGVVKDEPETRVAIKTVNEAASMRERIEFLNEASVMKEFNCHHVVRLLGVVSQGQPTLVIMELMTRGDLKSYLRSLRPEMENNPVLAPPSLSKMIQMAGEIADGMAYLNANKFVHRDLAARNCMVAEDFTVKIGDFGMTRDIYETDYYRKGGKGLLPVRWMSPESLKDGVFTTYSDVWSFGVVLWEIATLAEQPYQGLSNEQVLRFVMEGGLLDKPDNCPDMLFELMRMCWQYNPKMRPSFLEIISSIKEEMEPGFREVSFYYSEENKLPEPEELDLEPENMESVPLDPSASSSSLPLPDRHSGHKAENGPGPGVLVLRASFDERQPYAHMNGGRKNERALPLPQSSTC
Description: (§1) Kinase activity and compound inhibition are investigated using one or more of the three assay formats described below. The ATP concentrations for each assay are selected to be close to the Michaelis-Menten constant (KM) for each individual kinase. Dose-response experiments are performed at 10 different inhibitor concentrations in a 384-well plate format. […] Y=Min+(Max−Min)/(1+(X/IC50)^H) Equation (2)
(§2) IGF1R kinase biochemical activity was assessed using a Luciferase-Coupled Chemiluminescent Kinase assay (LCCA) format. Kinase activity was measured as the percent ATP remaining following the kinase reaction. Remaining ATP was detected by luciferase-luciferin-coupled chemiluminescence. Specifically, the reaction was initiated by mixing test compounds, 3 μM ATP, 4 μM poly EY peptide and 4 nM IGF1R (baculovirus expressed human IGF1R kinase domain residues M954-C1367) in a 20 uL assay buffer (20 mM Tris-HCL pH7.5, 10 mM MgCl2, 0.02% Triton X-100, 1 mM DTT, 2 mM MnCl2). The mixture is incubated at ambient temperature for 2 hours after which 20 uL luciferase-luciferin mix is added and the chemiluminescent signal read using a Wallac Victor^2 reader.

[2] = target: T2, IGF 3P (Homo sapiens, UniProt P08069); test: IGF1R kinase assay (LCCA), IGF 3P; assay type: biochemical
T2 construct: human IGF1R kinase domain residues M954-C1367; made in house; host or cells: baculovirus expression (insect cells)
T2 sequence (P08069 954-1367): as above
Description: as §1, §2

Compound	IC50 ([1]; IGF1R kinase LCCA assay)	IC50 ([2]; IGF1R kinase LCCA assay)	also measured
CC(C)(C)OC(=O)N1CCC(Nc2ncc(Br)c(Nc3cc(C4CC4)[nH]n3)n2)CC1 [Example 326]	> 5000 nM	> 5000 nM	–
CC(=O)Nc1ccc(Cl)c(Nc2ncc(Br)c(Nc3cc(C)on3)n2)c1 [Example 57]	500 to 5000 nM	< 50 nM	–
c1ccc(-c2cc(CNc3nc(Nc4cc(C5CC5)n[nH]4)cc(OCCN4CCCC4)n3)on2)cc1 [Example 514]	–	–	IC50 ([1]; IGF1R kinase LCCA assay, IGF 0P): 50 to 500 nM; IC50 ([2]; IGF1R kinase LCCA assay, IGF 3P): < 50 nM
COc1cc(Nc2ncc(Br)c(Nc3cc(C4CC4)n[nH]3)n2)cc(C(F)(F)F)c1 [Example 258]	> 5000 nM	> 5000 nM	–
Cc1cc(Nc2cc(C3CC3)n[nH]2)nc(NCc2nc(C(=O)NCCc3cccc(Cl)c3)cs2)n1 [Example 570]	500 to 5000 nM	500 to 5000 nM	–
Brc1cnc(Nc2ccccc2N2CCOCC2)nc1Nc1cc(C2CC2)n[nH]1 [Example 260]	> 5000 nM	> 5000 nM	–
Cc1cc(Nc2cc(C3CC3)n[nH]2)nc(Nc2ccc(CCNC(=O)OC(C)(C)C)cc2)n1 [Example 568]	500 to 5000 nM	500 to 5000 nM	–
CC(C)(C)OC(=O)N1CCC(CNc2ncc(Br)c(Nc3cc(C4CC4)n[nH]3)n2)CC1 [Example 315]	> 5000 nM	> 5000 nM	–
CN1CCN(c2cc(Nc3cc(C4CC4)[nH]n3)nc(NCc3cc(-c4cccs4)no3)n2)CC1 [Example 640, N^4-(5-cyclopropyl-1H-pyrazol-3-yl)-6-(4-methylpiperazin-1-yl)-N^2-{[3-(2-thienyl)isoxazol-5-yl]methyl}pyrimidine-2,4-diamine]	–	–	IC50 [1]: 50 to 500 nM; IC50 [2]: < 50 nM
Cc1cc(Nc2ccc3ccccc3c2)nc(NCc2cc(-c3ccccc3)no2)n1 [Example 299]	> 5000 nM	> 5000 nM	–
Clc1ccc(-c2ccc(CNc3ncc(Br)c(Nc4cc(C5CC5)n[nH]4)n3)s2)cc1 [Example 324]	> 5000 nM	> 5000 nM	–
CCN(CC)CCNC(=O)c1ccc2cc(Nc3nc(C)cc(Nc4cc(C5CC5)n[nH]4)n3)ccc2c1 [Example 59]	50 to 500 nM	< 50 nM	–
N#Cc1ccc(Nc2ncc(Br)c(Nc3cc(C4CC4)n[nH]3)n2)cc1 [Example 166]	500 to 5000 nM	500 to 5000 nM	–
Clc1ccc(CCNc2ncc(Br)c(Nc3cc(C4CC4)n[nH]3)n2)cc1 [Example 230]	> 5000 nM	500 to 5000 nM	–
Cc1cc(Nc2cc(C3CC3)[nH]n2)nc(NCc2cc(-c3ccc(F)c(F)c3)no2)n1 [Example 621, N^4-(5-cyclopropyl-1H-pyrazol-3-yl)-N^2-{[3-(3,4-difluorophenyl)isoxazol-5-yl]methyl}-6-methylpyrimidine-2,4-diamine]	–	–	IC50 [1]: 50 to 500 nM; IC50 [2]: < 50 nM
Cc1cc(Nc2cc(C(C)C)[nH]n2)nc(NCc2cc(C(C)C)no2)n1 [Example 526]	500 to 5000 nM	< 50 nM	–
NC(=O)c1c[nH]nc1Nc1nc(Nc2ccccc2Cl)ncc1Br [Example 332]	> 5000 nM	> 5000 nM	–
FC(F)(F)c1cccc(CNc2ncc(Br)c(Nc3cc(C4CC4)n[nH]3)n2)c1 [Example 263]	500 to 5000 nM	> 5000 nM	–
Nc1ncc(Br)c(Nc2cc(C3CC3)[nH]n2)n1 [Example 314]	> 5000 nM	> 5000 nM	–
Brc1cnc(Nc2ccc(N3CCOCC3)nc2)nc1Nc1cc(C2CC2)n[nH]1 [Example 81]	500 to 5000 nM	50 to 500 nM	–
Cc1cc(Nc2ccccc2)nc(Nc2ccc(N3CCOCC3)cc2)n1 [Example 567]	500 to 5000 nM	500 to 5000 nM	–
CCN(CC)CCNC(=O)c1cc(Nc2cc(C3CC3)[nH]n2)nc(NCc2cc(-c3ccccc3)no2)n1 [Example 530]	50 to 500 nM	< 50 nM	–
CC(C)CNc1ncc(Br)c(Nc2cc(C3CC3)[nH]n2)n1 [Example 118]	500 to 5000 nM	50 to 500 nM	–
CN1CCN(C(=O)c2ccc(Nc3ncc(Br)c(Nc4cc(C5CC5)n[nH]4)n3)cc2)CC1 [Example 124]	500 to 5000 nM	50 to 500 nM	–

Compound	IC50 ([1]; IGF1R kinase LCCA assay)	IC50 ([2]; IGF1R kinase LCCA assay)	also measured
CC(C)c1cc(CNc2nc(Nc3cc(C4CC4)n[nH]3)cc(N3CCC(CCO)CC3)n2)on1 [Example 662, 2-(1-{6-[(3-cyclopropyl-1H-pyrazol-5-yl)amino]-2-({[3-(1-methylethyl)isoxazol-5-yl]methyl}amino)pyrimidin-4-yl}piperidin-4-yl)ethanol]	–	–	IC50 [1]: 50 to 500 nM; IC50 [2]: < 50 nM
Nc1ncnn1-c1nc(Nc2ccc(N3CCOCC3)cc2)ncc1Br [Example 285]	> 5000 nM	> 5000 nM	–
Nc1nc(C2CC2)nn1-c1nc(Nc2ccc(N3CCOCC3)cc2)ncc1Br [Example 284]	> 5000 nM	> 5000 nM	–
Cc1cc(Nc2cc(C3CC3)[nH]n2)nc(NCc2cc(-c3ccncc3)no2)n1 [Example 620, N^4-(5-cyclopropyl-1H-pyrazol-3-yl)-6-methyl-N^2-[(3-pyridin-4-ylisoxazol-5-yl)methyl]pyrimidine-2,4-diamine]	–	–	IC50 [1]: 50 to 500 nM; IC50 [2]: 50 to 500 nM
Clc1ccccc1Nc1ncc(Br)c(Nc2cc(C3CC3)on2)n1 [Example 286]	> 5000 nM	> 5000 nM	–
Cc1ccc(C(C)C)cc1Nc1ncc(Br)c(Nc2cc(C3CC3)n[nH]2)n1 [Example 165]	500 to 5000 nM	500 to 5000 nM	–
Fc1cc(F)cc(Nc2ncc(Br)c(Nc3cc(C4CC4)n[nH]3)n2)c1 [Example 313]	> 5000 nM	> 5000 nM	–
Cc1cc(Nc2cc(C3CC3)n[nH]2)nc(Nc2cc(Cl)cc(Cl)c2)n1 [Example 274]	500 to 5000 nM	> 5000 nM	–
Brc1cc(CNc2ncc(Br)c(Nc3cc(C4CC4)[nH]n3)n2)on1 [Example 72]	500 to 5000 nM	50 to 500 nM	–
COc1ccc(-c2cc(CNc3ncc(Br)c(Nc4cc(C5CC5)[nH]n4)n3)on2)cc1 [Example 277]	> 5000 nM	> 5000 nM	–
CNCCc1ccc(Nc2nc(C)cc(Nc3cc(C4CC4)n[nH]3)n2)cc1 [Example 540]	500 to 5000 nM	500 to 5000 nM	–
c1ccc(-c2cc(CNc3nc(Nc4cc(C5CC5)[nH]n4)cc(N4CCNCC4)n3)on2)cc1 [Example 499]	50 to 500 nM	< 50 nM	–
CN(C)CCCNc1ncc(Br)c(Nc2cc(C3CC3)n[nH]2)n1 [Example 254]	> 5000 nM	500 to 5000 nM	–
Cc1cc(Nc2cc(C3CC3)n[nH]2)nc(Nc2ccc3c(c2)CNCC3)n1 [Example 545]	500 to 5000 nM	50 to 500 nM	–
CC(C)c1cc(CNc2nc(Nc3cc(C4CC4)[nH]n3)cc(N3CCN(S(C)(=O)=O)CC3)n2)on1 [Example 615, N^4-(5-cyclopropyl-1H-pyrazol-3-yl)-N^2-{[3-(1-methylethyl)isoxazol-5-yl]methyl}-6-[4-(methylsulfonyl)piperazin-1-yl]pyrimidine-2,4-diamine]	–	–	IC50 [1]: 50 to 500 nM; IC50 [2]: < 50 nM
Cc1cc(N2CCN(C)CC2)nc(N2CCN(C)CC2)n1 [Example 308]	> 5000 nM	> 5000 nM	–
Brc1cnc(NC(Cc2ccccc2)c2ccccc2)nc1Nc1cc(C2CC2)[nH]n1 (stereo not drawn) [Example 333]	> 5000 nM	> 5000 nM	–
Brc1cnc(NC2CCNCC2)nc1Nc1cc(C2CC2)[nH]n1 [Example 214]	> 5000 nM	500 to 5000 nM	–
Cc1cc(Nc2cc(C3CC3)n[nH]2)nc(Nc2ccc(CC#N)cc2)n1 [Example 125]	50 to 500 nM	50 to 500 nM	–
Cc1cc(C)cc(Nc2nc(C)cc(Nc3cc(C4CC4)n[nH]3)n2)c1 [Example 270]	500 to 5000 nM	> 5000 nM	–
Clc1ccc(CCNc2ncc(Br)c(Nc3cc(C4CC4)n[nH]3)n2)c(Cl)c1 [Example 240]	> 5000 nM	500 to 5000 nM	–
CC(=O)Nc1ccc(Cl)c(Nc2nccc(Nc3cc(C4CC4)[nH]n3)n2)c1 [Example 227]	500 to 5000 nM	500 to 5000 nM	–
Brc1cnc(Nc2ccccc2N2CCCCC2)nc1Nc1cc(C2CC2)[nH]n1 [Example 334]	> 5000 nM	> 5000 nM	–
Brc1cnc(NCc2csc(-c3cccs3)n2)nc1Nc1cc(C2CC2)[nH]n1 [Example 218]	500 to 5000 nM	500 to 5000 nM	–
